Test results from patent EP1039908B1, “MOLECULAR DISPERSION COMPOSITION WITH ENHANCED BIOAVAILABILITY” (SCHERING CORPORATION, priority 1997, dated 1999).

Experiment: Bioavailability assay: oral single dose to monkeys, plasma analysed by HPLC-UV, AUC ratio versus amorphous suspension control
Format: in vivo, male cynomolgus monkeys
Conditions: for bioavailability: qualitative statement, solid dosage form development with conventional excipients
Protocol: The formulation to be tested was administered orally to male cynomolgus monkeys in a single dose (PO, single). The number of monkeys for each test is indicated by the letter "N" followed by an equal sign and a number. Thus, "(N=6)" means the formulation was administered to six monkeys. The total amount of the compound of Formula I administered was 100 or 200 mg given as one capsule or tablet containing 100 or 200 mg each. The administered dose (tablet, capsule or control suspension) was slowly washed down with 10 mL of water. Blood samples were taken at 15, 30 minutes, 1 hour, 2 hours, 4 hours. 6 hours, 8 hours, 12 hours, 24 hours, and 48 hours in heparinized syringes. Plasma for analysis was obtained by centrifugation at 4°C. Plasma samples (one per time point) were split and stored at -20°C until assayed as described below.
The monkeys to be tested were fed two biscuits in the morning on the day of drug administration.
Monkeys that were fasted were not given any food overnight before drug administration and were fed normally after the 4-hour time point after drug administration.
Samples of monkey plasma were collected at selected time intervals. The plasma was analyzed by a high pressure liquid chromatograph (HPLC) procedure with ultraviolet detection. AUC (area under the plasma concentration-time curve, […]) values were calculated using standard procedures to determine the relative bioavailability of the compound in the tested formulations. The larger the AUC value, the greater the bioavailability.
A suspension of the compound of Formula I was used as a control. The control was made by suspending sufficient compound of Formula I in methyl cellulose solution to provide a dose of 30 mg/kg of body weight of monkey. The 0.4 % methyl cellulose solution was made by adding 4 grams of methyl cellulose to one liter of distilled water and heating at about 80°C with stirring for about 1 1/2 hours.
The results of the bioavailability assay are given in terms of percent-relative bioavailability (AUC ratio) compared to amorphous suspension of Compound I in 0.4 methyl cellulose solution.

[1] = suspension, PO single dose, fed monkeys
[2] = suspension, PO single dose, feeding state not printed in the sentence (fasted monkeys implied by b156)

Question: For `NC(=O)N1CCC(CC(=O)N2CCC(C3c4ncc(Br)cc4CCc4cc(Cl)cc(Br)c43)CC2)CC1` (single isomer, unassigned; (+)) [Compound I, (+)-4-[4-(8-chloro-3,10-dibromo-6,11-dihydro-5H-benzo [5,6cyclohepta[1,2-b]pyridin-11-yl)-1-piperidinyl]-2-oxoethyl]-1-piperidinecarboxamide], which bioavailability (listed as compound of Formula I) is on record?
Answer: extremely poor

Question: Which bioavailability does the source give for `NC(=O)N1CCC(CC(=O)N2CCC(C3c4ncc(Br)cc4CCc4cc(Cl)cc(Br)c43)CC2)CC1` (single isomer, unassigned; (+)) [crystalline compound I, (+)-4-[4-(8-chloro-3,10-dibromo-6,11-dihydro-5H-benzo [5,6cyclohepta[1,2-b]pyridin-11-yl)-1-piperidinyl]-2-oxoethyl]-1-piperidinecarboxamide] here?
Answer: very poor

Question: And the “relative bioavailability, % of the AUC of suspensions containing the amorphous form of compound I” value [1]?
Answer: 3.6%

Question: What about the “relative bioavailability, % of the C max of suspensions containing the amorphous form of compound I” value [1] of the same compound?
Answer: 5.2%

Question: And the “relative bioavailability, % of the AUC of the suspensions containing the amorphous form of compound I” value [2]?
Answer: 1.3%

Question: What about the “relative bioavailability, % of the Cmax of the suspensions containing the amorphous form of compound I” value [2] of the same compound?
Answer: 2.7%
